Results on 1 compound are retold here after article PMC4818757, “Small molecule inhibitors of the Dishevelled‐CXXC5 interaction are new drug candidates for bone anabolic osteoporosis therapy” (EMBO Molecular Medicine, 2016).

The structures appear in SMILES notation.

In the assay the test system is MC3T3E1 cells. Put plainly: qRT-PCR of osteoblast differentiation markers in MC3T3E1 cells. Conditions: dose‐dependent. Type of assay: cell-based, murine. On the procedure: Figure 5 Effects of KY‐02327 on Wnt/β‐catenin pathway and osteoblast differentiation in osteoblasts • A MC3T3E1 cells were transfected with pTOPFLASH together with pCMV‐β‐gal. After 24 h, the cells were treated with indicated dose of KY‐02327 for 2 days. The luciferase activities of whole‐cell lysates were measured and normalized with β‐galactosidase activities. (n = 3) • B, C MC3T3E1 cells were treated with indicated concentrations of KY‐02327 for 2 days. β‐Catenin and α‐tubulin were detected by immunoblot (B) or immunofluorescence (C) analyses. Nuclei were counterstained with DAPI (C, blue). Scale bars, 100 μm. • D MC3T3E1 cells were treated with indicated concentrations of KY‐02327 for 14 days. The mRNA level of collagen 1a (Col1a) was measured by quantitative real‐time PCR (qRT–PCR). […] The mRNA level of osteocalcin (OCN) was measured by qRT–PCR. […] (error bars), and significance was assessed using unpaired Student's t‐test.
MC3T3E1 cells and primary calvaria cells were maintained in supplemented α‐MEM. […] For quantitative real‐time PCR (qRT–PCR), total mRNAs were extracted using TRIzol (Invitrogen), complementary DNAs were prepared using Maxime PCR PreMix (iNtRON Biotechnology, Sungnam, Korea), and the qRT–PCRs were performed using SYBR Premix Ex Taq (TaKaRa, Shiga, Japan) in the StepOnePlus Real‐Time PCR machine (Thermo Fisher Scientific, Waltham, MA). […]
Background: Quantitative PCR measures a nucleic acid by following its amplification.

With `CCOC(=O)c1cc2cc(O)ccc2n1CC(=O)NCCN1CCCCC1` [KY‐02327], the “mRNA level of collagen 1a (Col1a)” value (14 days) is “increased”. Moreover, where the note is “21 days”, the “mRNA level of osteocalcin (OCN)” value is reported as “increased”.
